In BindingDB's records for doi:10.1016/0960-894X(96)00012-1 (1996):

Target: T1, Acetylcholinesterase (Bos taurus, UniProt P23795)
T1 sequence (P23795 whole entry): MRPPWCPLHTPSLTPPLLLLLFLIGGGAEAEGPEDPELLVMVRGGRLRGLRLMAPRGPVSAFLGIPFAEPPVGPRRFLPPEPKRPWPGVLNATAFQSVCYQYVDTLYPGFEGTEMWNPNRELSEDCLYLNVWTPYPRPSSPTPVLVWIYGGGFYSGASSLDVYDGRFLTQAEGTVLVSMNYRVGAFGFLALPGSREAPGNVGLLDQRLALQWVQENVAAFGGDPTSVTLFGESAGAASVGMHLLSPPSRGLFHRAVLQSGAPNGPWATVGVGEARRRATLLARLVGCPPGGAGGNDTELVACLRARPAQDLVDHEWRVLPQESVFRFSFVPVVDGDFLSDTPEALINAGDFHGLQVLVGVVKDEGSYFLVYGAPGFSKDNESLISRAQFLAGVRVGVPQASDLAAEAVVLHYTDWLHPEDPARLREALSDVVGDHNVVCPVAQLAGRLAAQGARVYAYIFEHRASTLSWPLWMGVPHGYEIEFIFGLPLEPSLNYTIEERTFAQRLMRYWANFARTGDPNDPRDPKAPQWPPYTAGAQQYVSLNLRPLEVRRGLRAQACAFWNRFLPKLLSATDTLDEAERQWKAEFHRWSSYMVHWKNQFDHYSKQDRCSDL
Assay: Kinetic constant for inhibition of fetal bovine serum acetylcholinesterase
Settings: for kon: read-out: kon (M-1-s-1)

Compound | kon (M-1-s-1) | kon [M⁻¹ s⁻¹]
C/C=C1\[C@H]2C=C(C)C[C@@]1(N)c1ccc(=O)[nH]c1C2 [Huperzine A] | 0.05667 M-1-s-1 | 0.057
C/C=C1\C2C=C(C)C[C@]1(N)c1ccc(=O)[nH]c1C2(C)C [(R)-1-Amino-13-ethylidene-8,8,11-trimethyl-6-aza-tricyclo[7.3.1.0*2,7*]trideca-2(7),3,10-trien-5-one] |  | 0.013
